Assay results published in ChEMBL document CHEMBL5230120, “Antiviral potential of natural products from marine microbes” (Eur J Med Chem, 2020).
Converted amounts (≈) assume the structure as drawn. Starred links: 1 amine or outer side, 2 acyl side, 3 side chain; linkers in the order of their positions; H or OH if unused. Positions of bridges follow the written chain, without caps; N, C: chain ends. Non-standard residues stand in square brackets, D forms with d. Residues, ends and D or L forms follow the SMILES beside them. X1 = CCCCCCCCC[C@@H](CCCC(=O)[*:1])O[*:2]; d(aThr) = C[C@@H](O)[C@@H](N)C(=O)O; dNMeY = CN[C@H](Cc1ccc(O)cc1)C(=O)O; aIle = CC[C@@H](C)[C@H](N)C(=O)O

How the values were obtained:
Human alphaherpesvirus 1 [1] = type: functional, organism-based; settings: Human alphaherpesvirus 1, Vero, 72 h
Influenza A virus [2] = experiment: microbe, parasite or virus in culture; settings: H3N2, MDCK, 48 h
Influenza A virus [3] = experiment: microbe, parasite or virus in culture; settings: H1N1, MDCK, 48 h
[4] = test system: Respiratory syncytial virus; type: functional, organism-based; settings: human respiratory syncytial virus, HEp-2
Dengue virus = experiment: Antiviral activity against Dengue virus serotype 2 infected in HEK293T/17 cells assessed as reduction in viral production at 50 uM incubated for 24 hrs by flow cytometric analysis; type: functional; set-up: scale not given: the % may be the effect or the level left
Influenza A virus [5] = type: functional
Human alphaherpesvirus 1 [6] = type: functional, organism-based; settings: Human alphaherpesvirus 1, Vero, 72 h; remark: listed apart in the source
Human alphaherpesvirus 1 [7] = type: functional, organism-based; settings: Human alphaherpesvirus 1, KOS, Vero, 72 h
Influenza A virus [8] = experiment: microbe, parasite or virus in culture; settings: H3N2, Vero
Influenza A virus [9] = experiment: microbe, parasite or virus in culture; settings: A/WSN/33 (H1N1), MDCK
[10] = test system: Human immunodeficiency virus 1; experiment: Antiviral activity against HIV-1 infected in human HEK293 cells co-expressing firefly luciferase gene assessed as inhibition of viral growth incubated for 48 hrs by firefly luciferase assay; type: functional, organism-based; settings: Human immunodeficiency virus 1, HEK293, 48 h
[11] = Cytotoxicity against human HEK293 cells assessed as reduction in cell viability; type: toxicity, cell-based
[12] = test system: Human immunodeficiency virus 1; experiment: Antiviral activity against HIV1 VSV-G pseudotyped virus infected in human SUP-T1 cells infected using supernatant of virus-producing 293T cells incubated for 48 hrs by firefly luciferase assay; type: functional, organism-based; settings: Human immunodeficiency virus 1, HEK293, 48 h
Influenza A virus [13] = type: functional, organism-based; settings: A/Puerto Rico/8/1934(H1N1), MDCK, 48 h
Chikungunya virus = experiment: Antiviral activity against CHIKV infected in Golden hamster BHK-21 cells assessed as reduction in viral titer incubated for 3 days by plaque assay; type: functional, organism-based; settings: BHK-21, 72 h
Enterovirus A71 [14] = type: functional, organism-based; settings: Enterovirus A, Vero
Human alphaherpesvirus 1 [15] = type: functional, organism-based; settings: Human alphaherpesvirus 1, Vero, 72 h; remark: listed apart in the source
Human alphaherpesvirus 1 [16] = type: functional, organism-based; settings: Human alphaherpesvirus 1, Vero, 72 h; remark: listed apart in the source
Enterovirus A71 [17] = type: functional, organism-based; settings: Enterovirus A, Vero; remark: listed apart in the source
Influenza A virus [18] = type: functional, organism-based; settings: H1N1
Hepatitis C virus = experiment: Antiviral activity against HCV infected in human Huh7.5 cells incubated for 72 hrs by RT-PCR assay; type: functional, organism-based, Hepacivirus hominis; settings: Huh7.5, 72 h
[19] = test system: Western equine encephalitis virus; experiment: Antiviral activity against Western equine encephalomyelitis virus Cba-87 infected in Golden hamster BSR-T7/5 cells assessed as reduction in viral RNA replication by RT-PCR analysis; type: functional, organism-based; settings: Cba-87, BSR-T7/5
Human alphaherpesvirus 1 [20] = type: functional, organism-based; settings: Human alphaherpesvirus 1, 15577, Vero
Human alphaherpesvirus 1 [21] = type: functional, organism-based; settings: Human alphaherpesvirus 1, Vero, 72 h; remark: listed apart in the source

COc1ccc(-c2cc3c(c(=O)o2)C[C@]2(O)[C@@]4(C)C(=O)C=CC(C)(C)[C@]4(O)CC[C@@]2(C)O3)cc1OC
IC50 (Human alphaherpesvirus 1 [1]): 6.34 µg/mL (≈ 12.8 µM)

CC[C@H]1O[C@@H]2O[C@H](/C=C/C=C/C=C/c3oc(=O)cc(OC/C=C(\C)C(=O)OC)c3C)[C@H](O)[C@]2(C)[C@@]1(C)O
IC50 (Influenza A virus [2]): 0.0062 µM | IC50 (Influenza A virus [3]): 3.5 µM

COC(=O)/C(C)=C/COc1cc(=O)oc(/C=C/C=C/C=C/[C@H]2O[C@H]3O[C@H](C)[C@](C)(O)[C@@]3(C)[C@H]2O)c1C
IC50 (Influenza A virus [2]): 0.0089 µM

COC(=O)[C@]1(Cc2ccc3c(c2)CCC(C)(C)O3)OC(=O)C(O)=C1c1ccc(O)cc1
IC50 (Human alphaherpesvirus 1 [1]): 28.9 µg/mL (≈ 68.1 µM)

CCCCC/C=C/C1=C(CO)[C@@H]2OC(C)(C)[C@@H](O)C[C@@]23O[C@H]3[C@@H]1O
IC50 [4]: 30.2 µM

CC(C)[C@@H]1NC(=O)[C@@H](C[C@@]2(O)c3ccccc3N3C(=O)C(C)(C)N[C@@H]32)n2c1nc1ccccc1c2=O
Activity (Dengue virus): 50%

CC(=O)c1c(O)cc2c3c(cccc13)C=C(C[C@@H](C)O)O2
inhibition at 50 µg/mL (Influenza A virus [5]): 42.5%

CCCCCCCCC[C@H]1CCCC(=O)N[C@H](CO)C(=O)N[C@H](C)C(=O)N2CCC[C@H]2C(=O)N[C@@H](CCC(N)=O)C(=O)N[C@H](Cc2ccc(O)cc2)C(=O)N[C@@H](C(C)C)C(=O)O1
EC50 (Human alphaherpesvirus 1 [6]): 15.6 µM

COc1cc(O)c2c(c1)[C@H](O)[C@](O)(CC(C)=O)CC2=O
IC50 (Human alphaherpesvirus 1 [7]): 0.1 µg/mL (≈ 0.357 µM)

CC(=O)[C@H]1CC[C@H]2C3=CC(=O)[C@H]4C[C@H](O)CC[C@]4(C)[C@H]3CC[C@]12C
IC50 (Influenza A virus [8]): 16.2 µM

COc1cc(O)c2c(c1)[C@H](O)[C@@H](CC(C)=O)CC2=O
IC50 (Human alphaherpesvirus 1 [7]): 1 µg/mL (≈ 3.78 µM)

C=C(C)C#CC1=C[C@@H]2O[C@@H](C(C)(C)O)C[C@]23O[C@@H]3[C@@H]1O
IC50 (Influenza A virus [9]): 30.4 µM

COc1cc(CCCC(C)C)oc(=O)c1C
IC50 [10]: 16.1 µM | IC50 [11]: > 100 µM

O=C1C[C@H](O)Cc2cc3cc(O)cc(-c4ccccc4)c3c(O)c21
inhibition at 50 µg/mL (Influenza A virus [5]): 47.8%

C=C(CC[C@@H](C)[C@H]1CC=C2C3=C(CC[C@@]21C)[C@@]1(C)CC[C@H](O)C[C@@H]1CC3=O)C(C)C
IC50 [12]: 3.5 µM

CC1(C)CCc2cc(/C=C3\OC(=O)C=C3c3ccc(O)cc3)ccc2O1
IC50 (Influenza A virus [13]): 87.1 µM

CO[C@@H](CC[C@H](C)[C@H]1O[C@@]23C[C@H](OC(=O)C[C@H]([C@@H](C)O)OC(=O)C[C@](OC)(O2)[C@H](C)CC3(C)C)[C@@H]1C)c1cccc(O)c1
IC50 (Chikungunya virus): 2.7 µM

CC(O)c1cc2c(cc1O)C(=O)c1cc(O)cc(O)c1C2=O (stereo unspecified)
IC50 (Enterovirus A71 [14]): 25.7 µM

C[C@@H]1C/C=C/C(=O)C/C=C/[C@H](O)CC(=O)O1
IC50 (Human alphaherpesvirus 1 [15]): 0.45 µM

COc1cc(O)c2c(c1)[C@@H]1OC(C)(OC)C[C@]1(O)CC2=O (stereo partly specified)
IC50 (Human alphaherpesvirus 1 [7]): 0.1 µg/mL (≈ 0.34 µM)

CC(C)/C=c1\[nH]c(=O)/c(=C/c2ccc(O)cc2)[nH]c1=O
IC50 (Influenza A virus [13]): 41.5 µM

CCCCC/C=C/C1=C(CO)[C@@H]2OC(C)(C)[C@@H](O)C[C@]2(O)[C@H](O)[C@@H]1O
IC50 [4]: 72 µM

C=C(C)C#CC1=C[C@@H]2O[C@@H](C(C)(C)O)C[C@]23O[C@@H]3[C@H]1O
IC50 [11]: > 100 µM

CC(=O)C(C)(O)CCCCC[C@H]1C=CC(=O)O1 (stereo partly specified)
EC50 (Human alphaherpesvirus 1 [16]): 25.4 µM

Cc1c2c(c3oc4c(C)c(=O)c(C)c5c-4c(c3c1O)O[C@H](C)[C@H]5C)O[C@H](C)[C@H]2C
IC50 (Enterovirus A71 [17]): 14.5 µM

O=C(O)c1ccccc1Nc1c(C[C@H](O)[C@H](O)CO)[nH]c2c(C(=O)O)cccc12
IC50 (Influenza A virus [18]): 171 µM

COc1cc(O)c2c(c1)[C@H](O)[C@](O)(CO)CC2=O
IC50 (Human alphaherpesvirus 1 [7]): 1 µg/mL (≈ 3.93 µM)

COc1cc(O)c2c(c1)[C@H](O)[C@](O)(CC(C)O)CC2=O (stereo partly specified)
IC50 (Human alphaherpesvirus 1 [7]): 0.01 µg/mL (≈ 0.0354 µM)

CC[C@H](C)c1nc(OC)c(Cc2c[nH]c3ccccc23)nc1O
IC50 [12]: 4.6 µM | IC50 (Hepatitis C virus): 7.7 µM

COc1ccc(-c2cc3c(c(=O)o2)C[C@H]2[C@@](C)(CC[C@@]4(O)C(C)(C)OC(=O)CC[C@]24C)O3)cc1
IC50 (Human alphaherpesvirus 1 [1]): 16.4 µg/mL (≈ 35 µM)

CC(C)CC[C@@H]1NC(=O)/C(=C/c2ccccc2)NC1=O
IC50 (Influenza A virus [13]): 6.8 µM

CCC[C@H]1C[C@H]2OC(=O)c3c(cc(O)c(OC)c3O)[C@H]2O1
IC50 (Influenza A virus [13]): 172 µM

CCCCCCCC[C@H]1C(=O)O[C@H](C)[C@H](NC(=O)c2cccc(NC=O)c2O)C(=O)O[C@@H](C)[C@@H]1OC(=O)CC(C)CC (stereo partly specified)
IC50 [19]: 0.003 µM

COC1(Cc2ccc(O)cc2)OC(=O)C(O)=C1c1ccc(O)cc1 (stereo unspecified)
IC50 (Human alphaherpesvirus 1 [1]): 21.8 µg/mL (≈ 66.4 µM)

CC(C)[C@@H](NC(=O)[C@H](Cc1c[nH]c2ccccc12)NC(=O)[C@H](N)Cc1ccc(O)cc1)C(=O)O
IC50 (Human alphaherpesvirus 1 [20]): 19.8 µM

COc1cc(O)c2c(c1)[C@H](O)[C@@H](CO)CC2=O
IC50 (Human alphaherpesvirus 1 [7]): 1 µg/mL (≈ 4.2 µM)

CO[C@@H](CC[C@H](C)[C@H]1O[C@]23C[C@H](OC(=O)C[C@H]([C@@H](C)O)OC(=O)CC(=C(C)CC2(C)C)O3)[C@@H]1C)c1cccc(O)c1
IC50 (Chikungunya virus): 22.3 µM

CC(=O)[C@H]1CC[C@H]2C3=CC(=O)[C@@]4(C)C[C@H](O)CC[C@]4(C)[C@H]3CC[C@]12C
IC50 [4]: 0.12 µM

CCCCCCCCC[C@H]1CCCC(=O)N[C@H]([C@@H](C)O)C(=O)N[C@H](C)C(=O)N2CCC[C@H]2C(=O)N[C@@H](CCC(N)=O)C(=O)N[C@H](Cc2ccc(O)cc2)C(=O)N[C@@H](C(C)C)C(=O)O1
EC50 (Human alphaherpesvirus 1 [6]): 16.7 µM

CCC(C)[C@@H]1C(=O)/C(=C(/O)[C@@H]2[C@@H]([C@@H]3O[C@H]3C)C(C)=C[C@@H]3CCC[C@H](C)[C@@H]23)C(=O)N1C (stereo partly specified)
IC50 (Human alphaherpesvirus 1 [21]): 3.08 µM

C/C=C(\C)[C@H]1C(C)=C[C@@H]2CCC[C@H](C)[C@H]2[C@@H]1/C(O)=C1\C(=O)[C@@H](C(C)C)N(C)C1=O
IC50 (Human alphaherpesvirus 1 [21]): 3.12 µM

CC1=C[C@@H]2CCC[C@H](C)[C@H]2[C@H](/C(O)=C2\C(=O)[C@@H](C(C)C)N(C)C2=O)[C@H]1[C@@H]1O[C@H]1C
IC50 (Human alphaherpesvirus 1 [21]): 9.37 µM

CCCCCCCCC[C@H]1CCCC(=O)N[C@H]([C@@H](C)O)C(=O)N[C@H](C)C(=O)N2CCC[C@H]2C(=O)N[C@@H](CCC(N)=O)C(=O)N[C@H](Cc2ccc(O)cc2)C(=O)N[C@@H]([C@H](C)CC)C(=O)O1 ([d(aThr)][dA]PQ[dY][aIle]; linker N-C via X1)
EC50 (Human alphaherpesvirus 1 [6]): 14 µM

COc1ccc(C[C@@H]2NC(=O)[C@@H]3CCCN3C(=O)[C@H](C(C)C)NC(=O)[C@@H](Cc3ccc(O)cc3)N(C)C(=O)[C@H](Cc3ccc(OC)cc3)NC2=O)cc1 (cyclo(PY(Me)Y(Me)[dNMeY]V))
IC50 (Human alphaherpesvirus 1 [20]): 9.5 µM

Nc1nc2c(ncn2COCCO)c(=O)[nH]1 [ACYCLOVIR]
EC50 (Human alphaherpesvirus 1 [6]): 3 µM | IC50 (Human alphaherpesvirus 1 [21]): 3.5 µM

CO[C@@H](CC[C@H](C)[C@H]1O[C@@]23C[C@H](OC(=O)C[C@H]([C@@H](C)O)OC(=O)C[C@](O)(O2)[C@H](C)CC3(C)C)[C@@H]1C)c1cccc(O)c1 [DEBROMOAPLYSIATOXIN]
IC50 (Chikungunya virus): 1.3 µM

O=C1Nc2ccc(Cl)cc2[C@@](C#CC2CC2)(C(F)(F)F)O1 [EFAVIRENZ]
IC50 [11]: 40.6 µM

Nc1nc2c(ncn2COC(CO)CO)c(=O)[nH]1 [GANCICLOVIR]
EC50 (Human alphaherpesvirus 1 [16]): 0.025 µM

CCC[C@H]1C[C@H]2OC(=O)c3c(cc(OC)c(OC)c3O)[C@H]2O1 [MONOCERIN]
IC50 (Influenza A virus [13]): 176 µM

CCOC(=O)C1=C[C@@H](OC(CC)CC)[C@H](NC(C)=O)[C@@H](N)C1 [OSELTAMIVIR]
IC50 (Influenza A virus [9]): 46.7 µM | IC50 (Influenza A virus [8]): 0.034 µM

NC(=O)c1ncn([C@@H]2O[C@H](CO)[C@@H](O)[C@H]2O)n1 [RIBAVIRIN]
IC50 (Influenza A virus [13]): 38.8 µM | IC50 (Influenza A virus [18]): 133 µM | inhibition at 50 µg/mL (Influenza A virus [5]): 45.3% | IC50 [4]: 0.08 µM | IC50 (Enterovirus A71 [17]): 13.3 µM | IC50 (Enterovirus A71 [14]): 13.3 µM
